PubChem BioAssay (NCI)
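Tested at 5 concentrations; 48 h exposure; 96-well plates; endpoints linearly interpolated, else capped at highest concentration. At the TGI there is no net growth.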

Key:
Assay in all cases: growth of human tumour cells (NCI), 48 h
A549 NSCLC = system: A549 NSCLC
DMS 273 small cell lung = system: DMS 273 small cell lung
LXFL 529 NSCLC = system: LXFL 529 NSCLC
KM20L2 colon = system: KM20L2 colon
DLD-1 colon = system: DLD-1 colon
SF-539 CNS = system: SF-539 CNS
M19-MEL melanoma = system: M19-MEL melanoma
SNB-75 CNS = system: SNB-75 CNS
DMS 114 small cell lung = system: DMS 114 small cell lung
RXF-631 renal = system: RXF-631 renal
HOP-18 NSCLC = system: HOP-18 NSCLC
SNB-78 CNS = system: SNB-78 CNS
XF 498 CNS = system: XF 498 CNS
BT-549 breast = system: BT-549 breast
MDA-MB-231 breast = system: MDA-MB-231 breast

SMILES | TGI (A549 NSCLC) | TGI (DMS 273 small cell lung) | TGI (LXFL 529 NSCLC) | TGI (KM20L2 colon) | TGI (DLD-1 colon) | TGI (SF-539 CNS) | TGI (M19-MEL melanoma) | TGI (SNB-75 CNS) | TGI (DMS 114 small cell lung) | TGI (RXF-631 renal) | TGI (HOP-18 NSCLC) | TGI (SNB-78 CNS) | TGI (XF 498 CNS) | TGI (BT-549 breast) | TGI (MDA-MB-231 breast)
Cc1cc(C=O)c2c(=O)c3c(O)ccc(/C=C/C(C)C)c3oc2c1 | > 100 µM | > 100 µM | > 100 µM | > 100 µM | > 100 µM | > 100 µM | > 100 µM | > 100 µM | > 100 µM |  |  |  |  |  | 
COC(=O)N/N=C(\C)c1sc(-c2nc(C)c(/C(C)=N/NC(=O)OC)s2)nc1C | > 100 µM | > 100 µM | > 100 µM | > 100 µM | > 100 µM | > 100 µM | > 100 µM | > 100 µM | > 100 µM | > 100 µM | > 100 µM | > 100 µM |  |  | 
COc1ccc2cc3n(c(=O)c2c1)CCc1c-3cc(OC)c(OC)c1OC | > 100 µM | > 100 µM | > 100 µM | > 100 µM | > 100 µM | > 100 µM | > 100 µM | 98.6 µM | > 100 µM |  | > 100 µM | > 100 µM | > 100 µM |  | 
Cc1ccccc1NC(=O)CC(=O)NNCC(=O)Nc1nnc(-c2ccccc2)s1 | > 100 µM | > 100 µM | > 100 µM | > 100 µM | > 100 µM | > 100 µM | > 100 µM | 63.8 µM | > 100 µM | > 100 µM | 96.2 µM | > 100 µM | > 100 µM |  | 
COC(=O)/C=C1\C(CO[Si](C)(C)C(C)(C)C)OC(n2ccc(=O)[nH]c2=O)C1O (stereo unspecified) | 82.9 µM |  |  |  |  | 30.2 µM |  | > 100 µM |  |  |  |  |  | > 80.5 µM | > 100 µM
COc1ccc(OC)c(/C=C2/C(=O)N=C(NC(C)=O)N2C)c1 | > 100 µM |  |  |  |  | > 100 µM |  | > 100 µM |  |  |  |  |  | > 100 µM | > 100 µM
CCOC(OCC)(OCC)C(Br)CC (stereo unspecified) | > 100 µM | 34.5 µM | > 100 µM | > 100 µM | > 100 µM | > 100 µM | > 100 µM | > 100 µM | 25.3 µM | > 100 µM | > 100 µM | > 100 µM | > 100 µM |  | 
CN(C)c1ccc(/C=C2\CCc3ccccc3C2=O)cc1Br | > 100 µM | > 100 µM | > 100 µM | > 100 µM | > 100 µM | > 100 µM | > 100 µM | > 100 µM |  |  | > 100 µM | > 100 µM | > 100 µM |  | 
C=CCN(c1cc(O)c2c(c(C)cn2S(=O)(=O)c2ccccc2)c1[N+](=O)[O-])S(C)(=O)=O | > 100 µM |  |  |  |  | > 100 µM |  | > 100 µM |  |  |  |  |  | > 100 µM | > 100 µM
CCOC(=O)c1nc2ccc(C(F)(F)F)cc2nc1Oc1ccc(OC)cc1 | > 100 µM |  |  |  |  | > 100 µM |  | > 100 µM |  |  |  |  |  | > 100 µM | > 100 µM
CC(C)=CCC[C@@H](C)C1=C(N)C(O)=C(C)C(=O)C1=O | > 75 µM |  |  |  |  | > 75 µM |  | > 75 µM |  |  |  |  |  | > 75 µM | > 75 µM
O=[N+]([O-])c1ccc2c3c1[C@@H]1O[C@@H]1c1cccc(c1-3)[C@@H]1O[C@H]21 | 31 µM |  |  |  |  | 4.02 µM |  | 17.5 µM |  |  |  |  |  | 21.1 µM | 15.3 µM
NC1=C(c2nc(-c3ccccc3)cs2)C(c2ccco2)c2c(c3ccccc3oc2=O)O1 (stereo unspecified) | > 100 µM |  |  |  |  | > 100 µM |  | > 100 µM |  |  |  |  |  | > 100 µM | > 100 µM
O=C(Nc1ccc(Cl)cc1Cl)C1C(=O)OC2(CCCCC2)OC1=O | 28.8 µM |  |  |  |  | 23.6 µM |  | 29.2 µM |  |  |  |  |  | 26.7 µM | 33 µM
CCCCCCCCCCCCCCCCOP(=O)([O-])OCC[N+](C)(C)C1CC(C)(C)N(O)C(C)(C)C1 | > 100 µM |  |  |  |  | > 100 µM |  | > 100 µM |  |  |  |  |  | > 100 µM | > 100 µM
COc1ccc(NC(=S)c2ccc([N+](=O)[O-])o2)cc1 | 11.1 µM |  |  |  |  | 0.549 µM |  | 14.9 µM |  |  |  |  |  | 4.69 µM | 6.35 µM
CC1OC(OC2C(OC(=O)[C@]34CCC(C)(C)C[C@H]3C3=CC[C@@H]5[C@@]6(C)CC[C@H](OC7OC(CO)C(O)C(O)C7OC7OC(CO)C(O)C(O)C7O)C(C)(C)[C@@H]6CC[C@@]5(C)[C@]3(C)CC4)OCC(O)C2O)C(O)C(O)C1OC1OCC(O)C(O)C1O (stereo partly specified) | 19.2 µM |  |  |  |  | > 100 µM |  | 31 µM |  |  |  |  |  | 23.7 µM | 22.2 µM
CCCCCC(=O)OC[n+]1cccc(-c2c(COC(=O)NC(C)C)c(COC(=O)NC(C)C)c3n2CCC3)c1 | > 100 µM |  |  |  |  | > 72.5 µM |  | > 100 µM |  |  |  |  |  | > 100 µM | > 100 µM
Cc1nn(C(=O)Cc2ccccc2)c2c1C(c1ccc(/C=C/c3ccccc3)cc1)SC(N)=N2 (stereo unspecified) | > 100 µM |  |  |  |  | > 100 µM |  | > 100 µM |  |  |  |  |  | > 100 µM | > 100 µM
CCOc1ccc(OP2(=O)NC(=O)C=C(C)N2)cc1 (stereo unspecified) | > 100 µM | > 100 µM | > 100 µM | > 100 µM | > 100 µM | > 100 µM | > 100 µM | > 100 µM | > 100 µM | > 100 µM | > 100 µM | > 100 µM | > 100 µM |  | 
CN1S(=O)(=O)N(C)P12(N=P(CP(=NP13(N(C)S(=O)(=O)N1C)N(C)S(=O)(=O)N3C)(c1ccccc1)c1ccccc1)(c1ccccc1)c1ccccc1)N(C)S(=O)(=O)N2C | > 100 µM | > 100 µM | > 100 µM | > 100 µM | > 100 µM | > 100 µM | > 100 µM | > 100 µM | > 100 µM | > 100 µM | > 100 µM | > 100 µM | > 100 µM |  | 
CC1(c2ccc(Cl)cc2)C=C(c2ccc(Cl)cc2)C(C#N)=C(C(C#N)C#N)N1 (stereo unspecified) | 42.2 µM |  |  |  |  | 43.9 µM |  | 33.6 µM |  |  |  |  |  | 43.3 µM | 54.9 µM
Cc1ccc2c(c1C)CC1(Cc3ccc(C)c(C)c3C1=O)C2=O (stereo unspecified) | > 100 µM |  |  |  |  | > 100 µM |  | > 100 µM |  |  |  |  |  | > 100 µM | > 100 µM
CC(C)(C)OC(=O)/N=C/c1c(O)c2ccccc2oc1=O | > 100 µM |  |  |  |  | > 100 µM |  | > 100 µM |  |  |  |  |  | > 100 µM | 86 µM
